Molecules are shown by their SMILES.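 Dose response: 5 concentrations. Exposure: 48 h. Format: 96-well plates. Endpoint: linear interpolation; highest concentration if not reached. GI50 is the concentration that inhibits growth by half. TGI: total growth inhibition.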

Some test systems named below: SK-MEL-5 melanoma; T-47D breast; NCI-H23 lung; HL-60(TB) leukemia; SR leukemia; SF-295 CNS; U251 CNS; COLO 205 colon; BT-549 breast; K-562 leukemia.
Experiment in all cases: NCI anticancer screen, dose series, 48 h

As to `Oc1c(Cl)cc(Cl)c2ccc(Cn3cc(-c4ccc(C(F)(F)F)cc4)nn3)nc12`, the GI50 is 3.07 µM in the experiment with SK-MEL-5 melanoma; 1.88 µM with T-47D breast; 2.04 µM in the experiment on NCI-H23 lung; 0.685 µM in the experiment on HL-60(TB) leukemia; 0.651 µM in the experiment on SR leukemia; 17.2 µM in the experiment with SF-295 CNS. The GI50 in the experiment with U251 CNS is 4.43 µM; with COLO 205 colon it was 1.39 µM; in the experiment on BT-549 breast, 1.94 µM; in the experiment with K-562 leukemia it was 0.479 µM. In addition, the TGI with SK-MEL-5 melanoma was 11.4 µM; in the experiment on T-47D breast it was 5.59 µM; with NCI-H23 lung, 4.76 µM; with HL-60(TB) leukemia, 3.65 µM; with SR leukemia it was over 100 µM; in the experiment with SF-295 CNS it was 32.1 µM. Moreover, the TGI in the experiment on U251 CNS was 17.2 µM; with COLO 205 colon it was 3.14 µM; in the experiment with BT-549 breast, 5.22 µM; with K-562 leukemia, over 100 µM.
Consider `CCN(CC)CCCC(C)N/C(=C1\C(=O)NC(=O)\C1=C(/NC(C)CCCN(CC)CC)c1cccc(OC)c1)c1cccc(OC)c1` (stereo not given), for which the GI50 with SK-MEL-5 melanoma was 0.836 µM; in the experiment with T-47D breast, 1.3 µM; in the experiment on NCI-H23 lung, 1.19 µM; with HL-60(TB) leukemia, 0.968 µM; in the experiment on SR leukemia it was 0.444 µM; with SF-295 CNS it was 0.813 µM. Moreover, the GI50 is 0.844 µM with U251 CNS, 0.728 µM in the experiment with COLO 205 colon, 1.31 µM in the experiment with BT-549 breast and 0.581 µM with K-562 leukemia. The TGI in the experiment with SK-MEL-5 melanoma was determined as 1.54 µM; in the experiment on T-47D breast it was 3.7 µM; in the experiment on NCI-H23 lung, 3.15 µM; with HL-60(TB) leukemia it was 2.49 µM; in the experiment with SR leukemia, 2.13 µM; with SF-295 CNS it was 1.78 µM. Also, the TGI with U251 CNS stood at 1.89 µM; in the experiment with COLO 205 colon, 1.65 µM; in the experiment with BT-549 breast, 3.82 µM; in the experiment on K-562 leukemia, 3.86 µM.
For `CCOc1ccn(-c2ccc(F)cc2)c(=O)c1C(=O)Nc1ccc(Oc2ccnc(N)c2Cl)c(F)c1`, the GI50 in the experiment on SK-MEL-5 melanoma is 9.99 µM; in the experiment on T-47D breast, 11.8 µM; with NCI-H23 lung, 10.4 µM; in the experiment with HL-60(TB) leukemia, 15.3 µM; in the experiment on SR leukemia, 6.17 µM; with SF-295 CNS, 0.787 µM. For the same molecule, the GI50 is 26 µM in the experiment with U251 CNS, 2.54 µM in the experiment with COLO 205 colon, 13.8 µM in the experiment on BT-549 breast and 4.42 µM in the experiment on K-562 leukemia. Further, the TGI is 25.5 µM with SK-MEL-5 melanoma; 98 µM in the experiment with T-47D breast; over 100 µM with NCI-H23 lung; 38.6 µM in the experiment with HL-60(TB) leukemia; 28.7 µM with SR leukemia; 48.3 µM with SF-295 CNS. Also, the TGI in the experiment with U251 CNS is over 100 µM; with COLO 205 colon it was 5.57 µM; with BT-549 breast, 59.2 µM; in the experiment with K-562 leukemia, over 100 µM.
Turning to `CC[C@@H](C)/C=C(C)/C=C/C(=O)c1c(O)c(-c2ccc(O)cc2)cn(O)c1=O`, the GI50 in the experiment on SK-MEL-5 melanoma is 0.201 µM; in the experiment with T-47D breast, 0.609 µM; in the experiment with NCI-H23 lung, 0.562 µM; in the experiment on HL-60(TB) leukemia, 0.27 µM; with SR leukemia it was 0.25 µM; with SF-295 CNS, 0.703 µM. Moreover, the GI50 in the experiment on U251 CNS is 0.374 µM; with COLO 205 colon it was 7.19 µM; with BT-549 breast, 0.487 µM; in the experiment with K-562 leukemia, 0.392 µM. Besides, the TGI with SK-MEL-5 melanoma is 0.562 µM; in the experiment with T-47D breast it was 28.5 µM; with NCI-H23 lung, 9.93 µM; in the experiment on HL-60(TB) leukemia, 13.5 µM; with SR leukemia it was 4.82 µM; in the experiment on SF-295 CNS it was 9.99 µM. Besides, the TGI with U251 CNS is 11.2 µM; in the experiment with COLO 205 colon it was 20.6 µM; in the experiment on BT-549 breast, 16.1 µM; in the experiment with K-562 leukemia it was over 41.2 µM.
Take `COC(=O)c1oc2c(C(=O)/C=C/c3ccc(OC)cc3)c(OCCN(C)C)ccc2c1C`: the GI50 with SK-MEL-5 melanoma was 10.6 µM; in the experiment on T-47D breast, 3.1 µM; in the experiment on NCI-H23 lung it was 9.76 µM; in the experiment with HL-60(TB) leukemia, 1.88 µM; in the experiment with SR leukemia, 2.37 µM; in the experiment with SF-295 CNS, 14.2 µM. The GI50 in the experiment on U251 CNS was 5.72 µM; in the experiment with COLO 205 colon, 4.59 µM; in the experiment on BT-549 breast, 4.88 µM; in the experiment on K-562 leukemia, 2.24 µM. For the same molecule, the TGI in the experiment with SK-MEL-5 melanoma came out at 22.4 µM; with T-47D breast it was 16.8 µM; with NCI-H23 lung, 26.1 µM; in the experiment with HL-60(TB) leukemia it was 6.01 µM; in the experiment with SR leukemia, 7.38 µM; with SF-295 CNS, 29.3 µM. For the same molecule, the TGI came out at 19.3 µM with U251 CNS, 19.3 µM in the experiment on COLO 205 colon, 16 µM in the experiment with BT-549 breast and 8.49 µM in the experiment on K-562 leukemia.
On to `COC(=O)c1cc2c3ccccc3n3c2c(n1)-c1[nH]c2ccccc2c(=O)c1C3`, for which the GI50 in the experiment with SK-MEL-5 melanoma was over 100 µM; in the experiment with T-47D breast, 58.4 µM; in the experiment on NCI-H23 lung, 38.9 µM; with HL-60(TB) leukemia it was over 100 µM; with SR leukemia it was 17.3 µM; with SF-295 CNS it was 32 µM. The GI50 was 15.2 µM with U251 CNS, over 100 µM with COLO 205 colon, 22.6 µM with BT-549 breast and over 100 µM in the experiment on K-562 leukemia. For the same molecule, the TGI in the experiment with SK-MEL-5 melanoma was over 100 µM; with T-47D breast, over 100 µM; with NCI-H23 lung it was over 100 µM; with HL-60(TB) leukemia, over 100 µM; with SR leukemia, 96.9 µM; in the experiment on SF-295 CNS, over 100 µM. Further, the TGI with U251 CNS was 52.3 µM; with COLO 205 colon, over 100 µM; in the experiment with BT-549 breast it was 63.2 µM; in the experiment on K-562 leukemia, over 100 µM.
As for `Cn1cc(-c2cnn3c(N)c(Br)c(C4CCCNC4)nc23)cn1` (stereo not given), the GI50 is 3.64 µM with SK-MEL-5 melanoma; 19.6 µM in the experiment on T-47D breast; 0.546 µM in the experiment with NCI-H23 lung; 1.62 µM in the experiment with HL-60(TB) leukemia; 0.326 µM in the experiment with SR leukemia; 0.527 µM with SF-295 CNS. The GI50 in the experiment on U251 CNS is 20.2 µM; with COLO 205 colon it was 4.54 µM; in the experiment with BT-549 breast, 0.922 µM; with K-562 leukemia, 3.85 µM. For the same molecule, the TGI was 18.7 µM in the experiment with SK-MEL-5 melanoma; over 100 µM in the experiment on T-47D breast; over 81.6 µM in the experiment on NCI-H23 lung; 35.1 µM in the experiment with HL-60(TB) leukemia; 16.9 µM in the experiment with SR leukemia; over 44.4 µM in the experiment with SF-295 CNS. The TGI is over 100 µM with U251 CNS, 19.8 µM with COLO 205 colon, 32.5 µM in the experiment with BT-549 breast and over 100 µM in the experiment on K-562 leukemia.

The record behind these values is PubChem BioAssay (NCI).
